From patent publication US11021481B2, “Substituted isoindolin-1-ones and 2,3-dihydro-1h-pyrrolo[3,4-c]pyridin-1-ones as HPK1 antagonists” (Nimbus Saturn, Inc., priority 2019, dated 2021)
Structures can show the parent of a compound that is named as a salt.

target: HPK1 (Homo sapiens (Human), UniProt Q92918); experiment: HPK1 biochemical enzyme assay (microfluidic mobility shift assay); details: 1.5 nM HPK1, ATP 1 mM final, 30 min preincubation, 60 min at RT, Caliper EZ Reader; read-out: HPK1 1000UMATP caliper IC50
Outline: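 Ten-point compound titrations (top 3 μM final) preincubated 30 min with HPK1 and substrate, then reaction started with 1 mM ATP and 1 μM substrate, 5 mM MgCl2. After 60 min at RT, reaction terminated and product measured by microfluidic mobility shift.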

Sequence of HPK1 (Q92918 whole entry): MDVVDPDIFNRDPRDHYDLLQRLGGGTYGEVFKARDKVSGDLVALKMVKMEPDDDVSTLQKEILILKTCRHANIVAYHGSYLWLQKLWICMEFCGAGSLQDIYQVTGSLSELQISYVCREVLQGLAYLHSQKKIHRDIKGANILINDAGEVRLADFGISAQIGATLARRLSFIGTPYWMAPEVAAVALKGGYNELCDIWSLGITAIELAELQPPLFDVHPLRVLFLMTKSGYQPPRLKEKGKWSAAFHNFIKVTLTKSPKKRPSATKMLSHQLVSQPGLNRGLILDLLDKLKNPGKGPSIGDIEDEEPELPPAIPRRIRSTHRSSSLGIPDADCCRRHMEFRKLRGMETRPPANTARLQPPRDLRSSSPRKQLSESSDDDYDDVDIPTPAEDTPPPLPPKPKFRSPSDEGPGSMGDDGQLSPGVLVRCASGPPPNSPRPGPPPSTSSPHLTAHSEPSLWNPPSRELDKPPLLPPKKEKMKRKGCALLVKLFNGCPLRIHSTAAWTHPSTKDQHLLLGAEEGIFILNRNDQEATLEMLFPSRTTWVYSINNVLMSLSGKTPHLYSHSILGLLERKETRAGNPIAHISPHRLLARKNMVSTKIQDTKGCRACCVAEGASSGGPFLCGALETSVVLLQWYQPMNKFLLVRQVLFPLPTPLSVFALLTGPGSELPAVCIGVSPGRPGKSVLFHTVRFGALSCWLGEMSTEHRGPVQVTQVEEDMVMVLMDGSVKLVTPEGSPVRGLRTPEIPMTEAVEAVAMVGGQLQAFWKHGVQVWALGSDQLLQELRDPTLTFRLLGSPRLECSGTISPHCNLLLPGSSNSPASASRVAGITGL

Compound	IC50 [µM]
O=C1NCc2c(-c3cnc4cc(F)ccn34)ccc(Nc3ccc([C@H]4CCOC4)c(CN4CCC(F)(F)C4)n3)c21 [I-717, (R)-7-((6-((3,3-difluoropyrro-lidin-1-yl)methyl)-5-(tetrahydrofuran-3-yl)pyridin-2-yl)amino)-4-(7-fluoroimidazo [1,2-a]pyridin-3-yl)isoindolin-1-one]	< 0.1
C[C@@H](O)[C@@H]1CCCN(c2ccc(Nc3ccc(-c4cnc5cc(F)ccn45)c4c3C(=O)NC4)nc2)C1 (stereo in doubt) [I-357, 4-(7-fluoroimidazo [1,2-a]pyridin-3-yl)-7-((5-((S)-3-((S)-1-hydroxyethyl)piperidin-1-yl)pyridin-2-yl)amino)isoin-dolin-1-one]	< 0.1
Cn1cc2ncc(-c3ccc(Nc4ccc(N5CCC(O)CC5)cn4)c4c3CNC4=O)c-2cn1 [I-448, 7-((5-(4-hydroxy-piperidin-1-yl)pyridin-2-yl)amino)-4-(6-methyl-6H-pyrrolo[2,3-d]pyridazin-3-yl)isoindolin-1-one]	0.1 to 1
CN(C)C1(C2CN(c3ccc(Nc4ccc(-c5cnc6cc(F)ccn56)c5c4C(=O)NC5)nc3)CCO2)CC1 (stereo in doubt) [I-686, (R)-7-((5-(2-(1-(dimethylami-no)cyclopropyl)morphoIino)py-ridin-2-yl)amino)-4-(7-fluoroimidazo [1,2-a]pyridin-3-yl)isoindolin-1-one]	< 0.1
Cn1ccc2c(-c3ccc(Nc4ccc(C5(C)CCNCC5)cn4)c4c3CNC4=O)ccnc21 [I-272, 4-(1-methyl-1H-pyrrolo[2,3-b]pyridin-4-yl)-7-((5-(4-methylpiperidin-4-yl)pyridin-2-yl)amino)isoin-dolin-1-one]	< 0.1
Cn1ccc2c(-c3ncc(Nc4ccc([C@H]5CCOC5)c(CN5CC[C@@H](O)C5)n4)c4c3CNC4=O)ccnc21 [I-810, 7-((6-(((R)-3-hydroxypyrroli-din-1-yl)methyl)-5-((R)-THF-3-yl)pyridin-2-yl)amino)-4-(1-methyl-1H-pyrrolo[2,3-b]pyridin-4-yl)-2,3-dihydro-1H-pyrrolo[3,4-c]pyridin-1-one]	< 0.1
CN1CCN(c2ccc(Nc3cnc(-c4cnn5c4CCCC5)c4c3C(=O)NC4)nc2)CC1 [I-255, 7-((5-(4-methylpiperazin-1-yl)pyridin-2-yl)amino)-4-(4,5,6,7-tetrahydropyra-zolo[1,5-a]pyridin-3-yl)-2,3-dihydro-1H-pyrrolo[3,4-c]pyridin-1-one]	< 0.1
N#Cc1ccn2c(-c3ccc(Nc4ccc(N5CCC(O)CC5)cn4)c4c3CNC4=O)cnc2c1F [I-188, 8-fluoro-3-[7-[[5-(4-hydroxy-1-piperidyl)-2-pyridyl]amino]-1-oxo-isoindolin-4-yl]imidazo[1,2-a]pyridine-7-carbonitrile]	< 0.1
O=C1NCc2c(-c3cnc4cc(F)ccn34)ccc(Nc3ccc([C@@H]4CCOC4)c(CN4CC[C@H](O)C4)n3)c21 [I-779, 4-(7-fluoroimidazo[1,2-a]pyridin-3-yl)-7-((6-(((S)-3-hydroxypyrrolidin-1-yl)methyl)-5-((S)-tetrahydrofuran-3-yl)pyridin-2-yl)amino)isoindolin-1-one]	< 0.1
CC(C)(O)[C@H]1CCCN(c2ccc(Nc3ccc(-c4cnc5cc(F)ccn45)c4c3C(=O)NC4)nc2)C1 [I-213, 4-(7-fluoroimidazo [1,2-a]pyridin-3-yl)-7-[[5-[(3S)-3-(1-hydroxy-1-methyl-ethyl)-1-piperidyl]-2-pyridyl]amino] isoindolin-1-one]	< 0.1
CC(C)(O)[C@H]1CCCN(c2ccc(Nc3cnc(-c4cnc5c(F)cccn45)c4c3C(=O)NC4)nc2)C1 [I-243, 4-(8-fluoroimidazo [1,2-a]pyridin-3-yl)-7-[[5-[(3S)-3-(1-hydroxy-1-methyl-ethyl)-1-piperidyl]-2-pyridyl]-amino]-2,3-dihydropyrrolo [3,4-c]pyridin-1-one]	< 0.1
O=C1NCc2c(-c3cnc4cc(F)ccn34)ccc(Nc3ccc([C@H]4CCOC4)c(CN4CCOCC4)n3)c21 (stereo in doubt) [I-720, (SMK7-fluoroimidazo [1,2-a]pyridin-3-yl)-7-((6-(morpholinomethyl)-5-(tetrahydrofuran-3-yl)pyridin-2-yl)amino)isoin-dolin-1-one]	< 0.1
O=C1NCc2c(-c3cnc4cc(F)ccn34)ccc(Nc3ccc([C@@H]4CCOC4)c(CN4CCC(F)(F)C4)n3)c21 [I-718, (S)-7-((6-((3,3-difluoropyrro-lidin-1-yl)methyl)-5-(tetrahydrofuran-3-yl)pyridin-2-yl)amino)-4-(7-fluoroimidazo [1,2-a]pyridin-3-yl)isoindolin-1-one]	< 0.1
4-imidazo[1,2- a]pyridin-3-yl- 7-[(5-morpholino-2- pyridyl)-amino]-2,3- dihydropyrrolo [3,4-c]pyridin-1- one [I-198]	0.1 to 1
O=C1NCc2c(-c3cnc4cnccn34)ccc(Nc3ccc(N4CCCOCC4)cn3)c21 [I-300, 7-((5-(1,4-oxazepan-4-yl)pyridin-2-yl)amino)-4-(imidazo[1,2-a]pyrazin-3-yl)isoindolin-1-one]	< 0.1
Cc1ccn2c(-c3ccc(Nc4ccc(N5CC[C@@H](F)[C@H](O)C5)cn4)c4c3CNC4=O)cnc2c1F [I-583, 7-((5-((3R,4R]-4-fluoro-3-hydroxypiperidin-1-yl)pyridin-2-yl)amino)-4-(8-fluoro-7-methylimidazo [1,2-a]pyridin-3-yl)isoindolin-1-one]	< 0.1

Compound	IC50 [µM]
Cc1ccn2c(-c3ncc(Nc4ccc(N5CCN(C)CC5)cn4)c4c3CNC4=O)cnc2c1 [I-73, 4-(7-methylimidazo [1,2-a]pyridin-3-yl)-7-[[5-(4-methylpiperazin-1-yl)-2-pyridyl]-amino]-2,3-dihydropyrrolo [3,4-c]pyridin-1-]	< 0.1
CO[C@H]1CCN(Cc2nc(Nc3ccc(-c4cnc5cc(F)ccn45)c4c3C(=O)NC4)ccc2[C@H]2CCOC2)C1 (stereo in doubt) [I-789]	< 0.1
Cn1ccc2c(-c3ccc(Nc4ccc(N5CCNCC5)cn4)c4c3CNC4=O)ccnc21 [I-43]	< 0.1
Cn1ccc2c(-c3ncc(Nc4cccc(N5CC[C@H]6CNC[C@H]65)n4)c4c3CNC4=O)ccnc21 [I-440, 7-((6-((3aS,6aS)-hexahydropy-rrolo[3,4-b]pyrrol-(2H)-yl)pyridin-2-yl)amino)-4-(1-methyl-1H-pyrrolo[2,3-b]pyridin-4-yl)-2,3-dihydro-1H-pyrrolo[3,4-c]pyridin-1-one]	< 0.1
Cc1ccn2c(-c3ccc(Nc4ccc(N5CCO[C@@H](C(C)(C)O)C5)cn4)c4c3CNC4=O)cnc2n1 [I-646, (R)-7-((5-(2-(2-hydroxypropan-2-yl)morpholino)pyridin-2-yl)amino)-4-(7-methylimidazo [1,2-a]pyrimidin-3-yl) isoindolin-1-one]	< 0.1
O=C1NCc2c(-c3cnc4cnccn34)ccc(Nc3ccc(N4[C@@H]5CC[C@H]4C[C@H](O)C5)cn3)c21 [I-320, 7-((5-((1R,3s,5S)-3-hydroxy-8-azabicyclo [3,2.1]octan-8-yl)pyridin-2-yl)amino)-4-(imidazo[1,2-a]pyrazin-3-yl)isoindolin-1-one]	< 0.1
Cn1ccc2c(-c3ccc(Nc4cc(C5CCNCC5)n[nH]4)c4c3CNC4=O)ccnc21 [I-115, 4-(1-methylpyrrolo [2,3-b]pyridin-4-yl)-7-[[3-(4-piperidyl)-1H-pyrazol-5-yl]amino]isoin-dolin-1-one]	< 0.1
CN1CCN(c2ccc(Nc3cnc(-c4c(F)cnc5c4ccn5C)c4c3C(=O)NC4)nc2)CC1 [I-128]	< 0.1
CN1CCN(c2ccc(Nc3ccc(-c4ccnc5cc[nH]c45)c4c3C(=O)NC4)nc2)CC1 [I-81, 7-[[5-(4-methylpiperazin-1-yl)-2-pyridyl]amino]-4-(1H-pyrrolo[3,2-b]pyridin-7-yl)isoindolin-1-one]	< 0.1
Cn1ccc2c(-c3ccc(Nc4ccc(N5CCC(O)CC5)cn4)c4c3C(C)(C)NC4=O)ccnc21 [I-282, 7-((5-(4-hydroxypiper-idin-1-yl)pyridin-2-yl)amino)-3.3-dimethyl-4-(1-methyl-1H-pyrrolo[2,3-b]pyridin-4-yl)isoindolin-1-one]	> 1
Cn1ccc2c(-c3ncc(Nc4cccc(N5C[C@@H](CN6CCC6)CCC5=O)n4)c4c3CNC4=O)ccnc21 [I-688, (R)-7-((6-(5-(azetidin-1-ylmethyl)-2-oxopiperidin-1-yl)pyridin-2-yl)amino)-4-(1-methyl-1H-pyrrolo[2,3-b]pyridin-4-yl)-2,3-dihydro-1H-pyrrolo[3,4-c]pyridin-1-one]	> 1
COc1ccc2[nH]cc(-c3ncc(Nc4ccc(N5CCN(C)CC5)cn4)c4c3CNC4=O)c2c1 [I-9, 4-(5-methoxy-1H-indol-3-yl)-7-[[5-(4-methylpiperazin-1-yl)-2-pyridyl]amino]-2,3-dihydropyrrolo [3,4-c]pyridin-1-one]	0.1 to 1
O=C1NCc2c(-c3ccnc4cnccc34)ncc(Nc3ccc(N4CCC(O)CC4)cn3)c21 [I-592, 7-((5-(4-hydroxypiperidin-1-yl)pyridin-2-yl)amino)-4-(1,7-naphthyridin-4-yl)-2,3-dihydro-1H-pyrrolo[3,4-c]pyridin-1-one]	> 1
Cn1cnc2c(-c3ccc(Nc4ccc(N5CCNCC5)cn4)c4c3CNC4=O)cccc21 [I-122, 4-(1-methylbenzimidazol-4-yl)-7-[(5-piperazin-1-yl-2-pyridyl)amino] isoindolin-1-one]	< 0.1
CN(C)C1COCCN(c2ccc(Nc3ccc(-c4cnc5cc(F)ccn45)c4c3C(=O)NC4)nc2)C1 (centres unmarked) [I-509, 7-[[5-[6-(dimethylami-no)-l,4-oxazepan-4-yl]-2-pyridyl]amino]-4-(7-fluoroimidazo [1,2-a]pyridin-3-yl)isoindolin-1-one Formic acid salt]	< 0.1
CN(Cc1nc(Nc2ccc(-c3cnc4cc(F)ccn34)c3c2C(=O)NC3)ccc1[C@@H]1CCOC1)C1COC1 [I-744, (S)-4-(7-fluoroimidazo [1,2-a]pyridin-3-yl)-7-((6-((methyl(oxe-tan-3-yl)amino)meth-yl)-5-(tetrahydrofuran-3-yl)pyridin-2-yl)amino)isoin-dolin-1-one]	< 0.1
